Measured values: article PMC6749418, “SAR by Space: Enriching Hit Sets from the Chemical Space” (Molecules, 2019)
pIC50: −log10 of the molar value. Where two headings read alike, the source gives them in different places.

Experiments:
[1] = tested on: BRD4; details: cited from earlier work
[2] = biological target: T1, BRD4 (BD1+BD2) (Homo sapiens, UniProt O60885); experiment: BRD4 (BD1+BD2) TR-FRET assay, IC50 measurement; format: biochemical; details: average from three independent experiments
T1 construct: BRD4 (BD1+BD2) TR-FRET assay kit from BPS Bioscience; purchased BPS Bioscience
Experimental: Dose-response curves were built for these compounds, and for 5 of them, IC50 values were determined in TR-FRET assay as an average from three independent experiments (Table 1). Comparing the resulting hit molecules with the corresponding initial queries, one can see considerable structural differences. […] The relatively high FTrees similarity explains why they were not missed in the REAL Space search: The molecules still have very similar pharmacophoric properties in a similar arrangement. […] This is exemplary shown in Figure 7 for compound 20 and its respective query molecule 15. The shift of the nitrogen atom to the β position of the pyridine ring, as well as the different linker length, led to a completely flipped binding mode. It is also important to stress that the starting points of this study which led to the hits (compounds 19–22) had no significant activity against BRD4 in the functional (TR-FRET) assay; they were identified only in the binding assay (TSA).
All TR-FRET assays and IC50 measurements were performed using BRD4 (BD1+BD2) TR-FRET assay kit from BPS Bioscience (www.bpsbioscience.com) following the standard procedure.

[3] = tested on: T2, bromodomain 1 of BRD4; experiment: Thermal shift assay (TSA) with recombinant, truncated, His-tagged bromodomain 1 of BRD4; format: binding; details: 1% DMSO, 4 μM protein; for ΔTm (°C) at 10 μM: compound at 10 μM; for ΔTm (°C) at 20 μM: compound at 20 μM; for ΔTm (°C) at 40 μM: compound at 40 μM
T2 construct: made in house
Experimental: The compounds were synthesized according to the standard protocols for typical parallel synthesis transformations, including amide/sulfonamide coupling, reductive amination, urea synthesis, arylation/alkylation, etc. The synthesis was completed in a three-week period and all the 32 compounds could actually be synthesized. The products obtained were subjected to thermal shift assay (TSA) using recombinant, truncated, His-tagged bromodomain 1 of BRD4 [28] at 40, 20, and 10 μM (Figure 4). The hit selection criteria followed those described in our previous publication:|ΔTm| ≥ |ΔTm,av| + 3|σ(ΔTm)|(1) |ΔTm| ≥ 2|σ(Tm,DMSO)|(2) where ΔTm—thermal shift caused by the compound; ΔTm,av—mean thermal shift value within the plate; σ(ΔTm)—standard deviation of the thermal shift values within the plate; σ(Tm,DMSO)—standard deviation of the melting temperature values obtained for the control samples.
All tested compounds were obtained from Enamine Ltd. (Kyiv, Ukraine). Stock solutions of the tested compounds were prepared in 100% DMSO and were stored at −20 °C until use. The bromodomain 1 of BRD4 was expressed using pNIC28-Bsa4 plasmid vector with an insert representing domain 1 of BRD4 (44–168 AA, sequence entry O60885.1 in UniProtKB Database), N-terminus His6-tag and 16-amino acid linker.
All thermal shift assay (TSA) experiments with BRD4 protein were performed using ViiA™7 real-time PCR System equipped with 384-well heat block (Applied Biosystems, Waltham, MA, USA). General TSA methodology was adopted from the literature and experimentally modified in order to optimize conditions for measuring BRD4 melting temperature shifts upon interaction with small molecules. The optimal buffer composition for the TSA procedure was determined as described previously. Buffer consisting of 50 mM Phosphate-Na, 100 mM NaCl, pH = 7.5 was selected for BRD4 screening in this study. Purified BRD4 protein was pre-mixed with SYPRO Orange dye (Thermo Fischer Scientific, Cat. S6650, 5000x stock, Waltham, MA, USA) to prepare a master mix at 4 μM protein and 6× dye concentrations. Tested compounds were added to the protein-dye master mix at 40, 20, or 10 μM at 1% final DMSO concentration and incubated at 4 °C for 1 h in MicroAmp® optical 384-well reaction plates (ThermoFisher, Cat. 4309849, Waltham, MA, USA) sealed with optical sealing film (ThermalSeal RT2, Excel Scientific, Cat. TS-RT2, Victorville, CA, USA). The volumes of all reaction mixtures were 10 µL ([…]). The reaction plates were then kept at ambient temperature (22–24 °C) for an additional 15 min to ensure protein-compound interactions. Thermal scanning was performed by raising the temperature to 40 °C at 1.6 °C/min without signal detection followed by 40 °C to 90 °C temperature ramp at 0.05 °C/s with constant fluorescence intensity reading at 1-sec intervals using EX470/EM623 nm filter set.
Primary screening of the whole test set of 49 compounds was carried out in singletons. The raw data of dye fluorescence intensity change upon protein melt were exported using the ViiA7 RUO software (Applied Biosystems/Thermo Fischer Scientific). Further data visualization, curve fitting, melting temperature calculations on the raw fluorescence data were performed using custom-made Microsoft Excel scripts. The peak of the first derivative for the fluorescence curve was used to define melting temperature (Tm). Averaged Tm values for the control wells containing only the protein, dye and 1% DMSO were used as a reference point to determine melting temperature shifts (ΔTm).

[4] = investigational BRD4 inhibitors, Figure 1

## COc1nnc2ccc(N3CCC(c4ccc(OCCN5CCN(C)C(=O)[C@H]5C)cc4)CC3)nn12 [AZD5153]
[1]; [4]
  pIC50: 8.30

## CC1(C)C(=O)Nc2ccc(C(=O)Nc3cc(Cl)c(O)cc3F)cc21 [C00002]
[2]
  pIC50: 4.97
[3]
  ΔTm (°C) at 10 μM: 0.31 ± 0.05 °C
  ΔTm (°C) at 20 μM: 0.39 ± 0.08 °C
  ΔTm (°C) at 40 μM: 0.71 ± 0.01 °C

## CC1CC(=O)N(C)c2ccc(NC(=O)NCc3nc(N(C)C)no3)cc21 (stereo not shown) [C00004]
[2]
  pIC50: 4.58
[3]
  ΔTm (°C) at 10 μM: 0.30 ± 0.10 °C
  ΔTm (°C) at 20 μM: 0.72 ± 0.41 °C
  ΔTm (°C) at 40 μM: 1.52 ± 0.59 °C

## CC(C)(C)c1nnc2ccc(NCC(C)(C)c3cccnc3)nn12 [C00006]
[2]
  pIC50: 4.35
[3]
  ΔTm (°C) at 10 μM: 0.34 ± 0.13 °C
  ΔTm (°C) at 20 μM: 0.98 ± 0.22 °C
  ΔTm (°C) at 40 μM: 1.33 ± 0.17 °C

## CC(C)(CNc1ccc2nnc(C(F)(F)F)n2n1)c1cccnc1 [C00007]
[2]
  pIC50: 4.17
[3]
  ΔTm (°C) at 10 μM: 0.34 ± 0.19 °C
  ΔTm (°C) at 20 μM: 0.78 ± 0.14 °C
  ΔTm (°C) at 40 μM: 1.56 ± 0.05 °C

## CCC1Oc2cc(C(C)NC(=O)Cc3c(C)nc4[nH][nH]c(=O)c4c3C)ccc2NC1=O (stereo not shown) [C00009]
[2]
  pIC50: 3.85
[3]
  ΔTm (°C) at 10 μM: 0.29 ± 0.01 °C
  ΔTm (°C) at 20 μM: 0.44 ± 0.06 °C
  ΔTm (°C) at 40 μM: 0.53 ± 0.25 °C

## Cc1noc2c1-c1ccccc1C(c1ccc(Cl)cc1)=N[C@H]2CC(N)=O [CPI-0610]
[1]; [4]
  pIC50: 7.74

## O=C1Nc2ccc(NS(=O)(=O)C3CCCCC3)cc2C12CCC2 [compound 31]
[1]; known BRD4 inhibitors, Figure 6
  pIC50: > 6.82

## O=C1CCc2cc(NC(=O)Nc3ccc(C(F)(F)F)cc3)ccc2N1 [compound 32]
[1]; 10 μM, known BRD4 inhibitors, Figure 6
  inhibition at 10 μM: up to 92%

## CCS(=O)(=O)Nc1ccc(Oc2ccc(F)cc2F)c(-c2cn(C)c(=O)c3[nH]ccc23)c1 [mivebresib, Mivebresib]
[1]; [4]
  pIC50: 8.70 to 9.00
